Source: PubChem BioAssay AID1963834 (Molecular Pharmacology Branch, DTP, NCI, 2024)
pIC50: −log10 of the molar value.

Test system: 873145-292-R-J1-PDC complex spheroid viability
Experiment: Anticancer human tumor 873145-292-R-J1-PDC patient-derived renal clear cell carcinoma cell line growth inhibition [POLQ]
Settings: for pIC50: curve of first compound; for viability, T/C: stronger effect = lower value
How it was run: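 Patient-derived tumour cells were co-cultured with HUVEC and mesenchymal stem cells as multicellular spheroids at 37 °C. They were treated with POLQ inhibitors (novobiocin, ART-558, RP6685) alone or combined with other agents. Top concentrations were at or near clinical Cmax (otherwise 10 microM; SN-38 at 1 microM), decreasing in half-log steps.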

[1] = second compound 0.0316 µM, first compound 0.0316 µM
[2] = second compound 0.0316 µM, first compound 0.1 µM
[3] = second compound 0.0316 µM, first compound 0.316 µM
[4] = second compound 0.0316 µM, first compound 1 µM
[5] = second compound 0.0316 µM, first compound 3.16 µM
[6] = second compound 0.0316 µM, first compound 10 µM
[7] = second compound 0.1 µM, first compound 0.0316 µM
[8] = second compound 0.1 µM, first compound 0.1 µM
[9] = second compound 0.1 µM, first compound 0.316 µM
[10] = second compound 0.1 µM, first compound 1 µM
[11] = second compound 0.1 µM, first compound 3.16 µM
[12] = second compound 0.1 µM, first compound 10 µM
[13] = second compound 0.316 µM, first compound 0.0316 µM
[14] = second compound 0.316 µM, first compound 0.1 µM
[15] = second compound 0.316 µM, first compound 0.316 µM
[16] = second compound 0.316 µM, first compound 1 µM
[17] = second compound 0.316 µM, first compound 3.16 µM
[18] = second compound 0.316 µM, first compound 10 µM
[19] = second compound 1 µM, first compound 0.0316 µM
[20] = second compound 1 µM, first compound 0.1 µM
[21] = second compound 1 µM, first compound 0.316 µM
[22] = second compound 1 µM, first compound 1 µM
[23] = second compound 1 µM, first compound 3.16 µM
[24] = second compound 1 µM, first compound 10 µM
[25] = second compound 3.16 µM, first compound 0.0316 µM
[26] = second compound 3.16 µM, first compound 0.1 µM
[27] = second compound 3.16 µM, first compound 0.316 µM
[28] = second compound 3.16 µM, first compound 1 µM
[29] = second compound 3.16 µM, first compound 3.16 µM
[30] = second compound 3.16 µM, first compound 10 µM
[31] = second compound 10 µM, first compound 0.0316 µM
[32] = second compound 10 µM, first compound 0.1 µM
[33] = second compound 10 µM, first compound 0.316 µM
[34] = second compound 10 µM, first compound 1 µM
[35] = second compound 10 µM, first compound 3.16 µM
[36] = second compound 10 µM, first compound 10 µM
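Further: spheroids exposed to compounds for 7 days before viability readout.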
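Wherever viability, T/C is given: luminescence signal used as surrogate for viable cell content; 100% = DMSO vehicle control viability.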

## C#Cc1c(F)ccc2cc(O)cc(-c3ncc4c(N5CC6CCC(C5)N6)nc(OCC56CCCN5CC(F)C6)nc4c3F)c12 (stereo not given) + Cc1cccc(N(C)C(=O)C2C(O)CCN2c2nc(C)cc(C(F)(F)F)c2C#N)c1
Second compound 0.0316 µM
  pIC50: < 5.00
Second compound 0.1 µM
  pIC50: < 5.00
Second compound 0.316 µM
  pIC50: < 5.00
Second compound 1 µM
  pIC50: < 5.00
Second compound 3.16 µM
  pIC50: < 5.00
Second compound 10 µM
  pIC50: < 5.00
[1]
  viability, T/C: 94.5%
[2]
  viability, T/C: 112%
[3]
  viability, T/C: 88%
[4]
  viability, T/C: 91%
[5]
  viability, T/C: 98%
[6]
  viability, T/C: 88.8%
[7]
  viability, T/C: 103%
[8]
  viability, T/C: 97.4%
[9]
  viability, T/C: 89.5%
[10]
  viability, T/C: 89%
[11]
  viability, T/C: 102%
[12]
  viability, T/C: 92.1%
[13]
  viability, T/C: 96%
[14]
  viability, T/C: 94.6%
[15]
  viability, T/C: 107%
[16]
  viability, T/C: 92.1%
[17]
  viability, T/C: 87.3%
[18]
  viability, T/C: 90.7%
[19]
  viability, T/C: 99.8%
[20]
  viability, T/C: 89.2%
[21]
  viability, T/C: 91.2%
[22]
  viability, T/C: 93.7%
[23]
  viability, T/C: 95.1%
[24]
  viability, T/C: 88.8%
[25]
  viability, T/C: 87.1%
[26]
  viability, T/C: 84.5%
[27]
  viability, T/C: 89.6%
[28]
  viability, T/C: 95.9%
[29]
  viability, T/C: 85.1%
[30]
  viability, T/C: 89.6%
[31]
  viability, T/C: 86.5%
[32]
  viability, T/C: 95.8%
[33]
  viability, T/C: 95.8%
[34]
  viability, T/C: 94.4%
[35]
  viability, T/C: 82.5%
[36]
  viability, T/C: 86.9%

## CC1COCCN1c1cc(C2(O)CC3CCC(C2)O3)c2cnn(-c3ccn[nH]3)c2n1 (stereo not given) + Cc1cccc(N(C)C(=O)C2C(O)CCN2c2nc(C)cc(C(F)(F)F)c2C#N)c1
Second compound 0.0316 µM
  pIC50: 6.32
Second compound 0.1 µM
  pIC50: 6.21
Second compound 0.316 µM
  pIC50: 6.39
Second compound 1 µM
  pIC50: 6.29
Second compound 3.16 µM
  pIC50: 6.42
Second compound 10 µM
  pIC50: 6.51
[1]
  viability, T/C: 84.4%
[2]
  viability, T/C: 67.5%
[3]
  viability, T/C: 54%
[4]
  viability, T/C: 44.3%
[5]
  viability, T/C: 37.2%
[6]
  viability, T/C: 38%
[7]
  viability, T/C: 93.5%
[8]
  viability, T/C: 76.4%
[9]
  viability, T/C: 57.1%
[10]
  viability, T/C: 43.2%
[11]
  viability, T/C: 39.5%
[12]
  viability, T/C: 32%
[13]
  viability, T/C: 94.5%
[14]
  viability, T/C: 82.5%
[15]
  viability, T/C: 52.5%
[16]
  viability, T/C: 40.4%
[17]
  viability, T/C: 40.3%
[18]
  viability, T/C: 35.9%
[19]
  viability, T/C: 84.8%
[20]
  viability, T/C: 71.6%
[21]
  viability, T/C: 54%
[22]
  viability, T/C: 44.1%
[23]
  viability, T/C: 42.1%
[24]
  viability, T/C: 39.8%
[25]
  viability, T/C: 90.1%
[26]
  viability, T/C: 63.1%
[27]
  viability, T/C: 55.6%
[28]
  viability, T/C: 41.3%
[29]
  viability, T/C: 36.6%
[30]
  viability, T/C: 35.6%
[31]
  viability, T/C: 86.2%
[32]
  viability, T/C: 68.8%
[33]
  viability, T/C: 49%
[34]
  viability, T/C: 38.4%
[35]
  viability, T/C: 39.5%
[36]
  viability, T/C: 32%

## CCc1cc2c(N3CCc4c(cc(Cn5ccnc5)cc4-c4cn(C)nc4C(F)(F)F)C3=O)cc(C)nc2c(OC)n1 + Cc1cccc(N(C)C(=O)C2C(O)CCN2c2nc(C)cc(C(F)(F)F)c2C#N)c1
Second compound 0.0316 µM
  pIC50: < 5.00
Second compound 0.1 µM
  pIC50: < 5.00
Second compound 0.316 µM
  pIC50: < 5.00
Second compound 1 µM
  pIC50: < 5.00
Second compound 3.16 µM
  pIC50: < 5.00
Second compound 10 µM
  pIC50: < 5.00
[1]
  viability, T/C: 99.1%
[2]
  viability, T/C: 99.8%
[3]
  viability, T/C: 102%
[4]
  viability, T/C: 77.3%
[5]
  viability, T/C: 105%
[6]
  viability, T/C: 83.2%
[7]
  viability, T/C: 97.1%
[8]
  viability, T/C: 99.8%
[9]
  viability, T/C: 80.5%
[10]
  viability, T/C: 90.5%
[11]
  viability, T/C: 93.9%
[12]
  viability, T/C: 89.8%
[13]
  viability, T/C: 97.4%
[14]
  viability, T/C: 102%
[15]
  viability, T/C: 76.1%
[16]
  viability, T/C: 97.5%
[17]
  viability, T/C: 84.2%
[18]
  viability, T/C: 87.4%
[19]
  viability, T/C: 93%
[20]
  viability, T/C: 86.5%
[21]
  viability, T/C: 91.4%
[22]
  viability, T/C: 79.4%
[23]
  viability, T/C: 102%
[24]
  viability, T/C: 70.2%
[25]
  viability, T/C: 90.7%
[26]
  viability, T/C: 87.4%
[27]
  viability, T/C: 87.5%
[28]
  viability, T/C: 96.7%
[29]
  viability, T/C: 77.2%
[30]
  viability, T/C: 89.6%
[31]
  viability, T/C: 89.1%
[32]
  viability, T/C: 102%
[33]
  viability, T/C: 93.1%
[34]
  viability, T/C: 88.5%
[35]
  viability, T/C: 76.7%
[36]
  viability, T/C: 81.6%

## O=C(Nc1ccc(O)c(NS(=O)(=O)c2ccc(F)cc2)c1)c1ccc(-c2ccccc2)cc1 + Cc1cccc(N(C)C(=O)C2C(O)CCN2c2nc(C)cc(C(F)(F)F)c2C#N)c1
Second compound 0.0316 µM
  pIC50: < 5.00
Second compound 0.1 µM
  pIC50: < 5.00
Second compound 0.316 µM
  pIC50: < 5.00
Second compound 1 µM
  pIC50: < 5.00
Second compound 3.16 µM
  pIC50: < 5.00
Second compound 10 µM
  pIC50: < 5.00
[1]
  viability, T/C: 110%
[2]
  viability, T/C: 98.5%
[3]
  viability, T/C: 105%
[4]
  viability, T/C: 91.6%
[5]
  viability, T/C: 95%
[6]
  viability, T/C: 110%
[7]
  viability, T/C: 107%
[8]
  viability, T/C: 112%
[9]
  viability, T/C: 91.7%
[10]
  viability, T/C: 96%
[11]
  viability, T/C: 105%
[12]
  viability, T/C: 88.6%
[13]
  viability, T/C: 106%
[14]
  viability, T/C: 103%
[15]
  viability, T/C: 91.3%
[16]
  viability, T/C: 92.8%
[17]
  viability, T/C: 112%
[18]
  viability, T/C: 102%
[19]
  viability, T/C: 106%
[20]
  viability, T/C: 109%
[21]
  viability, T/C: 111%
[22]
  viability, T/C: 93.2%
[23]
  viability, T/C: 103%
[24]
  viability, T/C: 104%
[25]
  viability, T/C: 94.9%
[26]
  viability, T/C: 105%
[27]
  viability, T/C: 104%
[28]
  viability, T/C: 99.3%
[29]
  viability, T/C: 99.3%
[30]
  viability, T/C: 95.5%
[31]
  viability, T/C: 96.9%
[32]
  viability, T/C: 107%
[33]
  viability, T/C: 100%
[34]
  viability, T/C: 93.9%
[35]
  viability, T/C: 111%
[36]
  viability, T/C: 102%

## COc1cccc2c1C(=O)c1c(O)c3c(c(O)c1C2=O)CC(O)(C(=O)CO)CC3OC1CC(N)C(O)C(C)O1 (stereo not given) + Nc1ccc(C#CCN(C(=O)Cc2ncc(C(F)(F)F)cc2C(F)(F)F)c2ccc(F)cc2)nn1
Second compound 0.0316 µM
  pIC50: 5.80
Second compound 0.1 µM
  pIC50: 5.79
Second compound 0.316 µM
  pIC50: 5.79
Second compound 1 µM
  pIC50: 5.78
Second compound 3.16 µM
  pIC50: 5.90
Second compound 10 µM
  pIC50: 6.06
[1]
  viability, T/C: 100%
[2]
  viability, T/C: 86.6%
[3]
  viability, T/C: 95.9%
[4]
  viability, T/C: 81.7%
[5]
  viability, T/C: 3.57%
[6]
  viability, T/C: 1.97%
[7]
  viability, T/C: 113%
[8]
  viability, T/C: 93.3%
[9]
  viability, T/C: 85.1%
[10]
  viability, T/C: 84.7%
[11]
  viability, T/C: 3.75%
[12]
  viability, T/C: 2.69%
[13]
  viability, T/C: 98.9%
[14]
  viability, T/C: 91.9%
[15]
  viability, T/C: 84.3%
[16]
  viability, T/C: 83%
[17]
  viability, T/C: 4.08%
[18]
  viability, T/C: 2.88%
[19]
  viability, T/C: 99.1%
[20]
  viability, T/C: 85.7%
[21]
  viability, T/C: 84.5%
[22]
  viability, T/C: 86.2%
[23]
  viability, T/C: 3.81%
[24]
  viability, T/C: 3.33%
[25]
  viability, T/C: 92.4%
[26]
  viability, T/C: 93.9%
[27]
  viability, T/C: 99%
[28]
  viability, T/C: 61.4%
[29]
  viability, T/C: 1.38%
[30]
  viability, T/C: 2.89%
[31]
  viability, T/C: 106%
[32]
  viability, T/C: 97.5%
[33]
  viability, T/C: 111%
[34]
  viability, T/C: 42.9%
[35]
  viability, T/C: 1.14%
[36]
  viability, T/C: 2.84%
